# Laboratory results reported in ChEMBL document CHEMBL1139456, “Discovery of alpha,gamma-diketo acids as potent selective and reversible inhibitors of hepatitis C virus NS5b RNA-dependent RNA polymerase” (J Med Chem, 2004).
# pIC50: −log10 of the molar value.
# Molecular target: Nucleic Acid
# Experiment: Inhibitory activity against alpha human DNA polymerase was determined
# Type: nucleic-acid assay
row,Structure (SMILES),pIC50
1,N#Cc1c(Cl)cc(Cl)cc1COc1cccc(/C(O)=C/C(=O)C(=O)O)c1,< 5.30

# Molecular target: Nucleic Acid
# Experiment: Inhibitory activity against beta human DNA polymerase was determined
# Type: nucleic-acid assay
row,Structure (SMILES),pIC50
1,N#Cc1c(Cl)cc(Cl)cc1COc1cccc(/C(O)=C/C(=O)C(=O)O)c1,< 5.30

# Molecular target: RNA-directed RNA polymerase (Hepacivirus hominis, UniProt O39930)
# Experiment: Inhibitory activity against Hepatitis C virus RNA dependent RNA polymerase nonstructural protein 5B
# RNA-directed RNA polymerase, sequence (O39930 whole entry): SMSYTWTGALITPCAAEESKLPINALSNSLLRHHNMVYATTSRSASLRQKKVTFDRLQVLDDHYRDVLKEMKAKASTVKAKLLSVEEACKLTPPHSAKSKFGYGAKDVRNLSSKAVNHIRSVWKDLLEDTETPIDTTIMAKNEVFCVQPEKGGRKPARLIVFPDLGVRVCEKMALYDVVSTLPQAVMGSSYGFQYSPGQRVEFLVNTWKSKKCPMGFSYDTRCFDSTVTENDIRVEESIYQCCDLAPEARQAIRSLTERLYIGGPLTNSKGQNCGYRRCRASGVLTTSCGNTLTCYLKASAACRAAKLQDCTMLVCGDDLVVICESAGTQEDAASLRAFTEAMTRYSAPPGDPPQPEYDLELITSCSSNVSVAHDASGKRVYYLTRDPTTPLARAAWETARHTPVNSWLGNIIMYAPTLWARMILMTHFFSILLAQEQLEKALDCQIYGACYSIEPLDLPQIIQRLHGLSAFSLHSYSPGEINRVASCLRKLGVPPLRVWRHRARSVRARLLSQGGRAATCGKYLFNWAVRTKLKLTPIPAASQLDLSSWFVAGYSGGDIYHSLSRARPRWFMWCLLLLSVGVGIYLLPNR
row,Structure (SMILES),pIC50
1,O=C(O)C(=O)CCc1ccccc1,< 4.30
2,CCc1ccc(C(=O)CC(=O)C(=O)O)cc1,4.33
3,N#Cc1c(Cl)cc(Cl)cc1COc1cccc(/C(O)=C/C(=O)C(=O)O)c1,7.35
4,CCCOc1ccccc1C(=O)CC(=O)C(=O)O,5.41
5,Cc1ccc(C(=O)CC(=O)C(=O)O)cc1,5.30
6,O=C(O)C(=O)CC(=O)c1cccc(COc2ccccc2)c1,4.52
7,N#CCCCOc1ccccc1C(=O)CC(=O)C(=O)O,6.46
8,N#CCCCOc1ccc(OCc2ccccc2C#N)cc1/C(O)=C/C(=O)C(=O)O,< 4.30
9,O=C(O)C(=O)CC(=O)c1cccc(NS(=O)(=O)c2ccccc2)c1,4.80
10,N#CCCCOc1cccc(/C(O)=C/C(=O)C(=O)O)c1,5.60
11,O=C(O)C(=O)CC(=O)c1ccncc1,< 4.30
12,CCCCOc1ccccc1C(=O)CC(=O)C(=O)O,5.00
13,COC(=O)C(=O)CC(=O)c1ccccc1,< 4.30
14,O=C(O)C(=O)CC(=O)c1ccco1,< 4.30
15,O=C(O)C(=O)CC(=O)C(c1ccccc1)c1ccccc1,< 4.30
16,CC(C)(C)c1ccc(C(=O)CC(=O)C(=O)O)cc1,< 4.30

row,Structure (SMILES),pIC50
1,O=C(CC(O)C(=O)O)c1ccccc1 (stereo not given),< 4.30
2,N#Cc1ccccc1COc1cccc(/C(O)=C/C(=O)C(=O)O)c1,6.64
3,N#Cc1cccc(COc2cccc(/C(O)=C/C(=O)C(=O)O)c2)c1,5.17
4,O=C(O)C(=O)CC(=O)c1cccnc1,< 4.30
5,CC(C)(C)C(=O)CC(=O)C(=O)O,< 4.30
6,O=C(O)C(=O)CC(=O)c1ccsc1,5.35
7,O=C(O)C(=O)CC(=O)c1cccc(OCc2ccccc2)c1,5.10
8,O=C(O)C(=O)CC(=O)c1ccccc1,5.24
9,N#Cc1ccc(Br)cc1COc1cccc(/C(O)=C/C(=O)C(=O)O)c1,7.00
10,N#Cc1c(Cl)cccc1COc1cccc(/C(O)=C/C(=O)C(=O)O)c1,6.96
11,O=C(O)C(=O)CC(=O)c1cccc(NC(=O)c2ccccc2)c1,4.96
12,O=C(O)C(=O)CC(=O)c1cccc(NCc2ccccc2)c1,4.78
13,O=C(O)C(=O)CC(=O)c1ccccc1OCc1ccccc1,4.36
14,CCCCCOc1ccccc1C(=O)CC(=O)C(=O)O,4.60
15,CC(=O)CC(=O)C(=O)O,< 4.30

# Molecular target: Human immunodeficiency virus type 1 reverse transcriptase (Human immunodeficiency virus 1, UniProt Q72547)
# Experiment: Inhibitory activity against HIV-1 reverse transcriptase was determined
row,Structure (SMILES),pIC50
1,N#Cc1c(Cl)cc(Cl)cc1COc1cccc(/C(O)=C/C(=O)C(=O)O)c1,< 4.30

# Molecular target: Nucleic Acid
# Experiment: Inhibitory activity against gamma human DNA polymerase was determined
# Type: nucleic-acid assay
row,Structure (SMILES),pIC50
1,N#Cc1c(Cl)cc(Cl)cc1COc1cccc(/C(O)=C/C(=O)C(=O)O)c1,< 5.30
